Experimental data: patent US20060258599A1, “Methods and composition for the treatment of cystic fibrosis and related illnesses” (priority 2005, published 2006)
Where two headings read alike, the source gives them in different places.

Key:
[1] = tested on: glutathione S-transferase; details: cited from earlier work; for glutathione S-transferase activity: HT29 cells
[2] = tested on: individual who is a carrier of the CF gene; assay: Fatty acid profile blood tests before and after 10-day oral isothiocyanate (individual study); type: in vivo, human
Description: Example 1. Individual study based on 10 mg consumption of BITC. An isothiocyanate of 10 mg was taken orally per day for 10 days by an individual who is a carrier of the CF gene. Blood tests were performed before and after the 10-day study to determine the fatty acid levels before and after administration of the isothiocyanate.

[3] = +10 days vs baseline, 10 mg orally per day

## S=C=NCc1ccccc1 [BITC, benzyl isothiocyanate]
[1]; HT29 cells cultures exposed to BITC
  effect on glutathione S-transferase activity (in words): statistically significant increase
[1]; 5 μmol/L of BITC
  glutathione S-transferase activity: ~0.51 μmol min^−1 mg proteins^−1
[1]; 25 μmol/L of BITC
  glutathione S-transferase activity: ~0.74 μmol min^−1 mg protein^−1
[2]; [3]
  Arachidic Acid, % Change: −8.93%
  Arachidonic Acid, % Change: −3.31%
  DHA C22:6W3, % Change: 36.29%
  DPA C22 6W3, % Change: −5.19%
  DPA C22:6W6, % Change: −8.7%
  DTA C22 4W6T, % Change: 6.45%
  Docosanoic Acid C22:0, % Change: 22.59%
  Docosanoic Acid C22:1, % Change: 0%
  EPA, % Change: 18.57%
  Hexacosanoic Acid C24:0, % Change: 33.33%
  Hexacosanoic Acid C28:1, % Change: 29.17%
  Mead Acid, % Change: 0%
  Nervonic Acid, % Change: −2.47%
  Phytanic Acid, % Change: 18.8%
  Priatanic Acid, % Change: 11.11%
  Tetracosanoic Acid, % Change: 24.6%
  Tiete Tebrana Ratio, % Change: 0%
  Total Fatty Acids, % Change: 1.87%
  Total Monounsaturated, % Change: 12%
  Total Polyunsaturated, % Change: 4.35%
  Total Saturated, % Change: 0%
  Total w3, % Change: 20%
  Total w61, % Change: 2.44%
  h-g-Linoleic Acid, % Change: −9.88%
[2]; blood test after 10 mg orally per day for 10 days, baseline 0.031
  Tiete Tebrana Ratio, +10 days: 0.031
[2]; blood test after 10 mg orally per day for 10 days, baseline 0.09
  Priatanic Acid, +10 days: 0.1
[2]; blood test after 10 mg orally per day for 10 days, baseline 0.3
  Hexacosanoic Acid C24:0, +10 days: 0.4
[2]; blood test after 10 mg orally per day for 10 days, baseline 0.48
  Hexacosanoic Acid C28:1, +10 days: 0.62
[2]; blood test after 10 mg orally per day for 10 days, baseline 0.5
  Total w3, +10 days: 0.6
[2]; blood test after 10 mg orally per day for 10 days, baseline 1.33
  Phytanic Acid, +10 days: 1.58
[2]; blood test after 10 mg orally per day for 10 days, baseline 2.5
  Total Monounsaturated, +10 days: 2.8
[2]; blood test after 10 mg orally per day for 10 days, baseline 3
  Docosanoic Acid C22:1, +10 days: 3
[2]; blood test after 10 mg orally per day for 10 days, baseline 3.5
  Total Saturated, +10 days: 3.5
[2]; blood test after 10 mg orally per day for 10 days, baseline 4.1
  Total w61, +10 days: 4.2
[2]; blood test after 10 mg orally per day for 10 days, baseline 4.6
  Total Polyunsaturated, +10 days: 4.8
[2]; blood test after 10 mg orally per day for 10 days, baseline 10.7
  Total Fatty Acids, +10 days: 10.9
[2]; blood test after 10 mg orally per day for 10 days, baseline 23
  DPA C22:6W6, +10 days: 21
[2]; blood test after 10 mg orally per day for 10 days, baseline 25
  Mead Acid, +10 days: 25
[2]; blood test after 10 mg orally per day for 10 days, baseline 31
  DTA C22 4W6T, +10 days: 33
[2]; blood test after 10 mg orally per day for 10 days, baseline 44.3
  Tetracosanoic Acid, +10 days: 55.2
[2]; blood test after 10 mg orally per day for 10 days, baseline 56
  Arachidic Acid, +10 days: 51
[2]; blood test after 10 mg orally per day for 10 days, baseline 60.2
  Docosanoic Acid C22:0, +10 days: 73.8
[2]; blood test after 10 mg orally per day for 10 days, baseline 70
  EPA, +10 days: 83
[2]; blood test after 10 mg orally per day for 10 days, baseline 77
  DPA C22 6W3, +10 days: 73
[2]; blood test after 10 mg orally per day for 10 days, baseline 81
  Nervonic Acid, +10 days: 79
[2]; blood test after 10 mg orally per day for 10 days, baseline 243
  h-g-Linoleic Acid, +10 days: 219
[2]; blood test after 10 mg orally per day for 10 days, baseline 248
  DHA C22:6W3, +10 days: 338
[2]; blood test after 10 mg orally per day for 10 days, baseline 847
  Arachidonic Acid, +10 days: 819
